System: 192522-019-R-J2-PDC complex tumor spheroid viability
Experiment: Anticancer human tumor 192522-019-R-J2-PDC patient-derived colon adenocarcinoma cell line growth inhibition [POLQ]
Settings: for IC50: curve of first compound; for viability, T/C: stronger effect = lower value
Outline: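 PDC + HUVEC + MSC complex spheroids; POLQ inhibitors ± partner drugs; top conc. at/near clinical Cmax, else 10 microM (SN-38 1 microM), half-log dilutions; 37 degrees C, 5% CO2.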

[1] = second compound 0.0316 µM, first compound 0.0316 µM
[2] = second compound 0.0316 µM, first compound 0.1 µM
[3] = second compound 0.0316 µM, first compound 0.316 µM
[4] = second compound 0.0316 µM, first compound 1 µM
[5] = second compound 0.0316 µM, first compound 3.16 µM
[6] = second compound 0.0316 µM, first compound 10 µM
[7] = second compound 0.1 µM, first compound 0.0316 µM
[8] = second compound 0.1 µM, first compound 0.1 µM
[9] = second compound 0.1 µM, first compound 0.316 µM
[10] = second compound 0.1 µM, first compound 1 µM
[11] = second compound 0.1 µM, first compound 3.16 µM
[12] = second compound 0.1 µM, first compound 10 µM
[13] = second compound 0.316 µM, first compound 0.0316 µM
[14] = second compound 0.316 µM, first compound 0.1 µM
[15] = second compound 0.316 µM, first compound 0.316 µM
[16] = second compound 0.316 µM, first compound 1 µM
[17] = second compound 0.316 µM, first compound 3.16 µM
[18] = second compound 0.316 µM, first compound 10 µM
[19] = second compound 1 µM, first compound 0.0316 µM
[20] = second compound 1 µM, first compound 0.1 µM
[21] = second compound 1 µM, first compound 0.316 µM
[22] = second compound 1 µM, first compound 1 µM
[23] = second compound 1 µM, first compound 3.16 µM
[24] = second compound 1 µM, first compound 10 µM
[25] = second compound 3.16 µM, first compound 0.0316 µM
[26] = second compound 3.16 µM, first compound 0.1 µM
[27] = second compound 3.16 µM, first compound 0.316 µM
[28] = second compound 3.16 µM, first compound 1 µM
[29] = second compound 3.16 µM, first compound 3.16 µM
[30] = second compound 3.16 µM, first compound 10 µM
[31] = second compound 10 µM, first compound 0.0316 µM
[32] = second compound 10 µM, first compound 0.1 µM
[33] = second compound 10 µM, first compound 0.316 µM
[34] = second compound 10 µM, first compound 1 µM
[35] = second compound 10 µM, first compound 3.16 µM
[36] = second compound 10 µM, first compound 10 µM
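Further: spheroids exposed to drugs for seven days before reading.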
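Wherever viability, T/C is given: 100% = DMSO vehicle control viability in luminescence.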

In the case of `CC(C)n1c(=O)n(C)c2cnc3cc(F)c(-c4ccc(OCCCN5CCCCC5)nc4)cc3c21` + Nc1ccc(C#CCN(C(=O)Cc2ncc(C(F)(F)F)cc2C(F)(F)F)c2ccc(F)cc2)nn1, the IC50 (second compound 0.0316 µM) is reported as over 10 µM, the IC50 (second compound 0.1 µM) is reported as over 10 µM and the IC50 (second compound 0.316 µM) is reported as over 10 µM. For the same molecule, the IC50 (second compound 1 µM) was over 10 µM, the IC50 (second compound 3.16 µM) was over 10 µM and the IC50 (second compound 10 µM) was over 10 µM. For the same molecule, the viability, T/C [1] was 104%, the viability, T/C [2] was 97.6% and the viability, T/C [3] was 110%. It also gave a viability, T/C [4] of 118%, a viability, T/C [5] of 124% and a viability, T/C [6] of 101%. It also gave a viability, T/C [7] of 100%, a viability, T/C [8] of 112% and a viability, T/C [9] of 119%. For the same molecule, the viability, T/C [10] was 134%, the viability, T/C [11] was 122% and the viability, T/C [12] was 94%. The viability, T/C [13] was 113%, the viability, T/C [14] was 105% and the viability, T/C [15] was 110%. For the same molecule, the viability, T/C [16] was 118%, the viability, T/C [17] was 123% and the viability, T/C [18] was 111%. The viability, T/C [19] was 104%, the viability, T/C [20] was 118% and the viability, T/C [21] was 122%. The viability, T/C [22] was 138%, the viability, T/C [23] was 137% and the viability, T/C [24] was 111%. It also gave a viability, T/C [25] of 116%, a viability, T/C [26] of 104% and a viability, T/C [27] of 116%. It also gave a viability, T/C [28] of 127%, a viability, T/C [29] of 120% and a viability, T/C [30] of 112%. For the same molecule, the viability, T/C [31] was 105%, the viability, T/C [32] was 104% and the viability, T/C [33] was 117%. The viability, T/C [34] was 127%, the viability, T/C [35] was 127% and the viability, T/C [36] was 114%.

`CC1COCCN1c1cc(-c2ccnn2C)c2ccnc(-c3ccn[nH]3)c2n1` (stereo unspecified) + Nc1ccc(C#CCN(C(=O)Cc2ncc(C(F)(F)F)cc2C(F)(F)F)c2ccc(F)cc2)nn1 showed an IC50 (second compound 0.0316 µM) of 0.592 µM, an IC50 (second compound 0.1 µM) of 0.444 µM and an IC50 (second compound 0.316 µM) of 0.508 µM. It also gave an IC50 (second compound 1 µM) of 0.651 µM, an IC50 (second compound 3.16 µM) of 0.57 µM and an IC50 (second compound 10 µM) of 0.895 µM. The viability, T/C [1] was 104%, the viability, T/C [2] was 83.7% and the viability, T/C [3] was 59.6%. For the same molecule, the viability, T/C [4] was 37%, the viability, T/C [5] was 44% and the viability, T/C [6] was 46.1%. The viability, T/C [7] was 101%, the viability, T/C [8] was 86.1% and the viability, T/C [9] was 54.1%. The viability, T/C [10] was 38.7%, the viability, T/C [11] was 40.2% and the viability, T/C [12] was 46.2%. For the same molecule, the viability, T/C [13] was 96.8%, the viability, T/C [14] was 93.5% and the viability, T/C [15] was 53.6%. The viability, T/C [16] was 35.5%, the viability, T/C [17] was 45.6% and the viability, T/C [18] was 54.2%. It also gave a viability, T/C [19] of 95.8%, a viability, T/C [20] of 84.5% and a viability, T/C [21] of 61.4%. It also gave a viability, T/C [22] of 40.2%, a viability, T/C [23] of 41.2% and a viability, T/C [24] of 45%. It also gave a viability, T/C [25] of 100%, a viability, T/C [26] of 81.9% and a viability, T/C [27] of 59.6%. The viability, T/C [28] was 36.5%, the viability, T/C [29] was 42% and the viability, T/C [30] was 47.1%. For the same molecule, the viability, T/C [31] was 97.8%, the viability, T/C [32] was 85.9% and the viability, T/C [33] was 63.9%. For the same molecule, the viability, T/C [34] was 43.5%, the viability, T/C [35] was 46.3% and the viability, T/C [36] was 50.8%.

With `CC1COCCN1c1cc(C2(S(C)(=N)=O)CC2)nc(-c2ccnc3[nH]ccc23)n1` (stereo unspecified) + Nc1ccc(C#CCN(C(=O)Cc2ncc(C(F)(F)F)cc2C(F)(F)F)c2ccc(F)cc2)nn1 the IC50 (second compound 0.0316 µM) was 5.87 µM, the IC50 (second compound 0.1 µM) was 6.81 µM and the IC50 (second compound 0.316 µM) was 6 µM. For the same molecule, the IC50 (second compound 1 µM) was 7 µM, the IC50 (second compound 3.16 µM) was 6.4 µM and the IC50 (second compound 10 µM) was 7.13 µM. The viability, T/C [1] was 101%, the viability, T/C [2] was 90.6% and the viability, T/C [3] was 102%. The viability, T/C [4] was 93.7%, the viability, T/C [5] was 68% and the viability, T/C [6] was 34.5%. For the same molecule, the viability, T/C [7] was 106%, the viability, T/C [8] was 98.6% and the viability, T/C [9] was 102%. For the same molecule, the viability, T/C [10] was 100%, the viability, T/C [11] was 69.6% and the viability, T/C [12] was 40.1%. For the same molecule, the viability, T/C [13] was 114%, the viability, T/C [14] was 100% and the viability, T/C [15] was 99.4%. For the same molecule, the viability, T/C [16] was 90%, the viability, T/C [17] was 67.9% and the viability, T/C [18] was 35.5%. The viability, T/C [19] was 103%, the viability, T/C [20] was 108% and the viability, T/C [21] was 100%. For the same molecule, the viability, T/C [22] was 96%, the viability, T/C [23] was 77% and the viability, T/C [24] was 37.8%. It also gave a viability, T/C [25] of 99.2%, a viability, T/C [26] of 100% and a viability, T/C [27] of 101%. It also gave a viability, T/C [28] of 100%, a viability, T/C [29] of 68% and a viability, T/C [30] of 38.5%. It also gave a viability, T/C [31] of 102%, a viability, T/C [32] of 101% and a viability, T/C [33] of 102%. The viability, T/C [34] was 105%, the viability, T/C [35] was 72.7% and the viability, T/C [36] was 40.5%.
